Measured values from DBAASP.
Values after ≈ are worked out from the molar mass of the structure shown.

Experiments:
Assay in all cases: ≥ marks a high value that may be exact or a test limit, other limits are often not marked, values filed in µg/mL are converted to µM
[1] = test system: Escherichia coli CGMCC 1.8732
[2] = test system: Bacillus subtilis CGMCC 1.3376
[3] = test system: Klebsiella pneumoniae CGMCC 1.1736
[4] = test system: Pseudomonas aeruginosa CGMCC 1.2421
[5] = test system: Staphylococcus epidermidis CGMCC 1.4260
[6] = test system: Staphylococcus aureus CGMCC 1.8721
[7] = test system: Enterococcus faecalis NCTC 12697
[8] = test system: Escherichia coli NCTC 10418
[9] = test system: Staphylococcus aureus NCTC 12493
[10] = test system: Candida albicans NCYC 1467
[11] = test system: Pseudomonas aeruginosa ATCC 27853
[12] = test system: Klebsiella pneumoniae ATCC 43816
[13] = test system: Staphylococcus aureus NCTC 10788
Trichoderma asperellum = test system: Trichoderma asperellum
[14] = test system: Xanthomonas campestris pv. citri
Fusarium oxysporum = test system: Fusarium oxysporum
[15] = test system: Cryptococcus neoformans ATCC 28957
Ramulariopsis gossypii = test system: Ramulariopsis gossypii
[16] = test system: Fusarium oxysporum f.sp. vasinfectum
[17] = test system: Pectobacterium carotovorum
[18] = test system: Escherichia coli ATCC 25922
[19] = test system: Bacillus subtilis ATCC 23857
Fusarium solani = test system: Fusarium solani
[20] = test system: Bacillus cereus ATCC 14579
[21] = test system: Pseudomonas syringae pv. tabaci
[22] = test system: Staphylococcus aureus ATCC 25923
[23] = test system: Candida albicans ATCC 90028
Rhizoctonia solani = test system: Rhizoctonia solani
Candida parapsilosis = test system: Candida parapsilosis
[24] = test system: Escherichia coli DH5alpha
Bacillus subtilis DELTA = test system: Bacillus subtilis DELTA
[25] = test system: Zymomonas mobilis ATCC 10988
[26] = test system: Pseudomonas aeruginosa PAO1
[27] = test system: Klebsiella pneumoniae KCTC 2208
[28] = test system: Acinetobacter baumannii KCTC 2508

Compound CC[C@H](C)[C@H](NC(=O)[C@H](C)N)C(=O)NCC(=O)N[C@@H](CO)C(=O)N[C@H](C(=O)N[C@@H](CC(C)C)C(=O)NCC(=O)N[C@@H](CCCN=C(N)N)C(=O)N[C@@H](CC(C)C)C(=O)N[C@@H](C)C(=O)N[C@@H](CCCCN)C(=O)NCC(=O)N[C@@H](CC(C)C)C(=O)N1CCC[C@H]1C(=O)N[C@H](C(=O)N[C@@H](CC(C)C)C(=O)N[C@H](C(=O)N[C@@H](CO)C(=O)N[C@@H](Cc1c[nH]c2ccccc12)C(=O)N[C@H](C(=O)N[C@@H](CCCCN)C(=O)N[C@@H](CC(N)=O)C(=O)N[C@@H](CCCN=C(N)N)C(N)=O)[C@@H](C)CC)[C@@H](C)CC)[C@@H](C)O)[C@@H](C)CC [AIGSILGRLAKGLPTLISWIKNR] has an MIC [1] of 12.5 µM (≈ 31 µg/mL), an MIC [2] of 3.13 µM (≈ 7.75 µg/mL) and an MIC [3] of 12.5 µM (≈ 31 µg/mL). The MIC [4] was 12.5 µM (≈ 31 µg/mL), the MIC [5] was 3.13 µM (≈ 7.75 µg/mL) and the MIC [6] was 3.13 µM (≈ 7.75 µg/mL).

In the case of CC(C)C[C@H](NC(=O)[C@H](C)N)C(=O)N[C@@H](Cc1c[nH]c2ccccc12)C(=O)N[C@@H](CCCCN)C(=O)N[C@@H](CO)C(=O)N[C@@H](CC(C)C)C(=O)N[C@@H](CC(C)C)C(=O)N[C@@H](CCCCN)C(=O)N[C@@H](CC(N)=O)C(=O)N[C@H](C(=O)NCC(=O)N[C@@H](CCCCN)C(=O)N[C@@H](C)C(N)=O)C(C)C [ALWKSLLKNVGKA], the MIC [7] is reported as ≥ 256 µM, the MIC [8] is reported as ≥ 64 µM and the MIC [9] is reported as ≥ 128 µM. For the same compound, the MIC [10] was ≥ 32 µM, the MIC [11] was 128 µM (≈ 183 µg/mL) and the MIC [12] was ≥ 128 µM. The MIC [13] was ≥ 64 µM.

CC[C@H](C)[C@H](NC(=O)[C@@H](NC(=O)[C@H](Cc1c[nH]c2ccccc12)NC(=O)[C@H](CCCCN)NC(=O)[C@H](Cc1ccccc1)NC(=O)[C@@H](NC(=O)[C@H](CCCCN)NC(=O)[C@@H](NC(=O)[C@H](CC(C)C)NC(=O)[C@H](CCCCN)NC(=O)[C@H](CCCN=C(N)N)NC(=O)CNC(=O)[C@H](CC(C)C)NC(=O)[C@H](CCCCN)NC(=O)[C@H](Cc1ccccc1)NC(=O)CN)C(C)C)C(C)C)[C@@H](C)CC)C(N)=O [GFKLGRKLVKVFKWII] was tested, and the MIC (Trichoderma asperellum) was 1 µM (≈ 1.93 µg/mL), the MIC [14] was 1 µM (≈ 1.93 µg/mL) and the MIC (Fusarium oxysporum) was 0.5 µM (≈ 0.966 µg/mL). It also gave an MIC [15] of 1 µM (≈ 1.93 µg/mL), an MIC (Ramulariopsis gossypii) of 0.5 µM (≈ 0.966 µg/mL) and an MIC [16] of 0.5 µM (≈ 0.966 µg/mL). It also gave an MIC [11] of 3.33 µM (≈ 6.43 µg/mL), an MIC [17] of 0.5 µM (≈ 0.966 µg/mL) and an MIC [18] of 0.5 µM (≈ 0.966 µg/mL). The MIC [19] was 1 µM (≈ 1.93 µg/mL), the MIC (Fusarium solani) was 0.5 µM (≈ 0.966 µg/mL) and the MIC [20] was 1 µM (≈ 1.93 µg/mL). The MIC [21] was 1 µM (≈ 1.93 µg/mL), the MIC [22] was 0.83 µM (≈ 1.6 µg/mL) and the MIC [23] was 1 µM (≈ 1.93 µg/mL). It also gave an MIC (Rhizoctonia solani) of 1 µM (≈ 1.93 µg/mL).

For CC[C@H](C)[C@H](NC(=O)[C@H](CCCCN)NC(=O)CN)C(=O)N[C@@H](CC(C)C)C(=O)N[C@@H](CCCCN)C(=O)N[C@@H](Cc1ccc(O)cc1)C(=O)N[C@@H](CC(C)C)C(=O)N[C@@H](CC(C)C)C(=O)N[C@@H](Cc1ccc(O)cc1)C(=O)N[C@@H](CC(C)C)C(=O)N[C@@H](CC(C)C)C(=O)N[C@@H](CCCN=C(N)N)C(=O)N[C@@H](CCCCN)C(=O)N[C@@H](Cc1ccc(O)cc1)C(=O)N[C@@H](C)C(=O)N[C@@H](CC(N)=O)C(=O)N[C@@H](CC(C)C)C(=O)N[C@H](C(=O)N[C@H](C(=O)N[C@@H](CCCN=C(N)N)C(N)=O)[C@@H](C)CC)[C@@H](C)CC [GKILKYLLYLLRKYANLIIR], the MIC (Trichoderma asperellum) was 1 µM (≈ 2.46 µg/mL), the MIC [14] was 16 µM (≈ 39.4 µg/mL) and the MIC (Fusarium oxysporum) was 2 µM (≈ 4.93 µg/mL). It also gave an MIC [15] of 1 µM (≈ 2.46 µg/mL), an MIC (Ramulariopsis gossypii) of 0.83 µM (≈ 2.05 µg/mL) and an MIC [16] of 0.83 µM (≈ 2.05 µg/mL). The MIC [11] was 16 µM (≈ 39.4 µg/mL), the MIC [17] was 16 µM (≈ 39.4 µg/mL) and the MIC [18] was 10.7 µM (≈ 26.3 µg/mL). The MIC [19] was 4 µM (≈ 9.86 µg/mL), the MIC (Fusarium solani) was 1 µM (≈ 2.46 µg/mL) and the MIC [20] was 13.3 µM (≈ 32.8 µg/mL). It also gave an MIC [21] of 4 µM (≈ 9.86 µg/mL), an MIC [22] of 8 µM (≈ 19.7 µg/mL) and an MIC [23] of 1 µM (≈ 2.46 µg/mL). It also gave an MIC (Rhizoctonia solani) of 1 µM (≈ 2.46 µg/mL).

For CC[C@H](C)[C@H](NC(=O)[C@H](CCCCN)NC(=O)[C@H](CCCCN)NC(=O)[C@H](CC(C)C)NC(=O)[C@H](CC(C)C)NC(=O)CN)C(=O)N[C@@H](CCCCN)C(=O)N[C@@H](CCCN=C(N)N)C(=O)N[C@@H](CC(C)C)C(=O)N[C@@H](CC(C)C)C(N)=O [GLLKKIKRLL], the MIC (Candida parapsilosis) was 25.4 µM (≈ 30 µg/mL), the MIC [24] was ≥ 169 µM and the MIC (Bacillus subtilis DELTA) was ≥ 169 µM. For the same compound, the MIC [25] was ≥ 33.9 µM and the MIC [26] was 5.92 µM (≈ 6.99 µg/mL).

CC[C@H](C)[C@H](N)C(=O)N[C@@H](C)C(=O)N[C@@H](CCCN=C(N)N)C(=O)N[C@@H](CCCN=C(N)N)C(=O)N[C@@H](C)C(=O)N[C@@H](CC(C)C)C(=O)N[C@@H](CCCCN)C(=O)N[C@@H](CCCCN)C(=O)N[C@@H](C)C(=O)N[C@@H](CCCCN)C(=O)N[C@@H](CCCN=C(N)N)C(=O)N[C@@H](C)C(=O)N[C@@H](C)C(=O)N[C@@H](Cc1cnc[nH]1)C(=O)N[C@@H](CCCCN)C(=O)N[C@H](C(=O)N1CCC[C@H]1C(=O)N[C@@H](C)C(=O)N[C@@H](C)C(=O)N[C@@H](CCCCN)C(=O)N[C@@H](CCCCN)C(=O)N[C@@H](Cc1ccccc1)C(=O)N[C@@H](C)C(=O)N[C@@H](CCCN=C(N)N)C(=O)N[C@@H](CCCN=C(N)N)C(N)=O)[C@@H](C)CC [IARRALKKAKRAAHKIPAAKKFARR] showed an MIC [27] of 2 µM (≈ 5.71 µg/mL), an MIC [11] of 8 µM (≈ 22.9 µg/mL) and an MIC [28] of 4 µM (≈ 11.4 µg/mL).

With CC[C@H](C)[C@H](N)C(=O)N[C@@H](C)C(=O)N[C@@H](CCCN=C(N)N)C(=O)N[C@@H](CCCN=C(N)N)C(=O)N[C@@H](C)C(=O)N[C@@H](CC(C)C)C(=O)N[C@@H](CCCCN)C(=O)N[C@@H](CCCCN)C(=O)N[C@@H](C)C(=O)N[C@@H](CCCCN)C(=O)N[C@@H](CCCN=C(N)N)C(=O)N[C@@H](C)C(=O)N[C@@H](C)C(=O)N[C@@H](Cc1cnc[nH]1)C(=O)N[C@@H](CCCCN)C(=O)N[C@H](C(=O)N1CCC[C@H]1C(=O)N[C@@H](CCC(N)=O)C(=O)N[C@@H](CS)C(=O)N[C@@H](CCCCN)C(=O)N[C@@H](CCCCN)C(=O)N[C@@H](Cc1ccccc1)C(=O)NCC(=O)N[C@@H](CCCN=C(N)N)C(=O)N[C@@H](CCCN=C(N)N)C(N)=O)[C@@H](C)CC [IARRALKKAKRAAHKIPQCKKFGRR] the MIC [27] was 8 µM (≈ 23.5 µg/mL), the MIC [11] was 2 µM (≈ 5.86 µg/mL) and the MIC [28] was ≥ 32 µM.

For CC[C@H](C)[C@H](NC(=O)[C@H](CO)NC(=O)CNC(=O)[C@@H](NC(=O)[C@@H](N)CCCN=C(N)N)[C@@H](C)CC)C(=O)N[C@@H](CC(C)C)C(=O)NCC(=O)N[C@@H](C)C(=O)N[C@@H](CC(C)C)C(=O)N[C@@H](C)C(=O)N[C@@H](CCCCN)C(=O)NCC(=O)N[C@@H](CC(C)C)C(=O)N1CCC[C@H]1C(=O)N[C@H](C(=O)N[C@@H](CC(C)C)C(=O)N[C@@H](CCCCN)C(=O)N[C@@H](CO)C(=O)N[C@@H](Cc1c[nH]c2ccccc12)C(=O)N[C@H](C(=O)N[C@@H](CCCCN)C(=O)N[C@@H](CC(N)=O)C(=O)N[C@@H](CCCN=C(N)N)C(N)=O)[C@@H](C)CC)[C@@H](C)O [RIGSILGALAKGLPTLKSWIKNR], the MIC [1] was 25 µM (≈ 62.3 µg/mL), the MIC [2] was 6.25 µM (≈ 15.6 µg/mL) and the MIC [3] was 25 µM (≈ 62.3 µg/mL). For the same compound, the MIC [4] was 12.5 µM (≈ 31.2 µg/mL), the MIC [5] was 6.25 µM (≈ 15.6 µg/mL) and the MIC [6] was ≥ 100 µM.
